Consider one compound from US7115624B1, “Method of inhibiting protein tyrosine phosphatase 1B and/or T-cell protein tyrosine phosphatase 4 and/or other PTPases with an Asp residue at position 48” (Novo Nordisk A/S, priority 1999, dated 2006).

Read-outs that look alike come from different tables or passages of the source.

Type in all cases: biochemical
One test has as its target T1, PTP1B (Homo sapiens, UniProt P18031).
T1 sequence (P18031 1-321): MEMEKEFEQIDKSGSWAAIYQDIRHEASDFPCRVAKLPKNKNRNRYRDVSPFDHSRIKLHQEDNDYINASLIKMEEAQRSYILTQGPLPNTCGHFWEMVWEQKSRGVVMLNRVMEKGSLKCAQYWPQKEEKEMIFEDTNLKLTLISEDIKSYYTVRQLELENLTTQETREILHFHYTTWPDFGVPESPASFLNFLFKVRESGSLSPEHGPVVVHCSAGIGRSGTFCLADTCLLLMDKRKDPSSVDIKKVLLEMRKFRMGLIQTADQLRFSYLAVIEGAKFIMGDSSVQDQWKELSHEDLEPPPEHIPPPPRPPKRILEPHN
Nature of the test: PTPase inhibition, p-nitrophenyl phosphate substrate, Ki. Conditions: pH 7.0; wt (Table 4); read-out: Ki values, PTP1B wt.

The target of another test is T2, PTPH1 (Homo sapiens, UniProt P26045).
T2 sequence (P26045 646-901 limits assumed): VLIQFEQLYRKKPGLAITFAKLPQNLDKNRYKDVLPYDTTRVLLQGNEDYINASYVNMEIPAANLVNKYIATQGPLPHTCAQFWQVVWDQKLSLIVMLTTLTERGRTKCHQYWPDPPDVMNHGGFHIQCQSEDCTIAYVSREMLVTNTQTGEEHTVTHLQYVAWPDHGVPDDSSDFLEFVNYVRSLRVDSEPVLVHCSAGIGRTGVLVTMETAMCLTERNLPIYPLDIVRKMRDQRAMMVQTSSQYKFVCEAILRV
The test is described as above. Conditions: pH 7.0; wt (Table 4). From the text:
(§1) To test directly, whether the above compound was addressing the proposed region of PTP1B, Compound N was subjected to detailed enzyme kinetic analyses using a set of wildtype (wt) and mutant PTPs. Two enzymes, PTPα and PTPH1, were chosen as representatives for PTPs with bulky side chains in the 259 position. Using a combination of wt and PTP mutants it has previously been shown that Gln259 in PTPα, in addition to its direct effect, also indirectly influences the binding of inhibitors and substrates, most likely due to a negative influence on the rotational freedom of the side chain of Gln262 (Peters et al., J. Biol. Chem. 275: 18201–18209 (2000)). As described above, selectivity can be obtained by introducing a basic nitrogen into 2-(oxalylamino)-4,5,6,7-tetrahydrobenzo[b]thiophene-3-carboxylic acid that causes attraction in PTP1B due to salt bridge formation to Asp48 and repulsion against PTPs with an asparagine in the 48 position, such as PTPα. To analyze if the current approach based on steric hindrance is generally applicable, it was decided to include a PTP with an aspartic acid in position 48. PTPH1, which like PTP1B is an intracellular enzyme with one domain only, was selected for these studies. The results of these studies are shown below (Table 4).
(§2) The assay conditions are as follows.

For test [1], the target named is T3, PTPα (Homo sapiens, UniProt P18433).
T3 construct: PTPα D1
T3 sequence (P18433 241-501 limits assumed): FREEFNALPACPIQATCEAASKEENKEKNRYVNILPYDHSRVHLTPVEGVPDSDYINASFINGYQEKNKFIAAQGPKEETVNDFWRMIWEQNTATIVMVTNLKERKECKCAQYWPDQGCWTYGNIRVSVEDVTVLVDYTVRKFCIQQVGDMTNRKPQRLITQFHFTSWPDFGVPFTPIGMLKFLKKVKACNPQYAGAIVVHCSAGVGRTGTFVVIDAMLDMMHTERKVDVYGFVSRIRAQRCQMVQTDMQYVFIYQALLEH
Described as above. Conditions: pH 7.0; wt (Table 4).
Excerpt: as §1, §2

In the next test the target is T4, LAR (Homo sapiens, UniProt P10586).
T4 sequence (P10586 1285-1907 limits assumed): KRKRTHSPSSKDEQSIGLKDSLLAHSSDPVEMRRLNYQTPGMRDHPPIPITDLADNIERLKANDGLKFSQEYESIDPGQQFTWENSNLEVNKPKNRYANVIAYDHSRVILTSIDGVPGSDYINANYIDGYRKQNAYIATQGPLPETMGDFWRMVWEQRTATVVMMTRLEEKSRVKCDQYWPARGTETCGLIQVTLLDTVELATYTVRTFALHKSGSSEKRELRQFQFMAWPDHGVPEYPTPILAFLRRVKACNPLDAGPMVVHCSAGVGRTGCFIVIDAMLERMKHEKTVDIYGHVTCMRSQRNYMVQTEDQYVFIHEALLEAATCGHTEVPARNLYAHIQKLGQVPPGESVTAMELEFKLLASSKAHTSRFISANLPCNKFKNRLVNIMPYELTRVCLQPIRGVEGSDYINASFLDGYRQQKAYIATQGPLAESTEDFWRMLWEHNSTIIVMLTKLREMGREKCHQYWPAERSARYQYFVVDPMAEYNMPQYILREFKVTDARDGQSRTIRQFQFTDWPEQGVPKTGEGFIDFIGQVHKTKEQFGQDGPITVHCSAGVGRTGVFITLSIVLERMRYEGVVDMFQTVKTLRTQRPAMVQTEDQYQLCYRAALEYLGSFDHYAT
The test is described as above. Conditions: pH 7.0 (Table 5); read-out: Ki values, LAR.

For another test, the target named is PTPα Q259G (Homo sapiens, UniProt P18433, Q483G). The experiment in a line: Enzyme kinetic analysis with mutant PTPs, Ki. Conditions: pH 7.0.
Sequence of PTPα Q259G (P18433 211-512 Q483G limits assumed): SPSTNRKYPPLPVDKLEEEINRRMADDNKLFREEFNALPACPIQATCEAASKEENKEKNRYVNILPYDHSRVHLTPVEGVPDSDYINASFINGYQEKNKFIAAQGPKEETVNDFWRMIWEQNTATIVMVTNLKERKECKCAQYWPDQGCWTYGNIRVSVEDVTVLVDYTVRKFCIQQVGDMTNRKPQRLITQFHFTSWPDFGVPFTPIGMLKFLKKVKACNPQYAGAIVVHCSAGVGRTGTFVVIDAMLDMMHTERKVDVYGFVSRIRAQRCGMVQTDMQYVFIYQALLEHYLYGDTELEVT
The target of a further test is T5, PTP1B G259M (Homo sapiens, UniProt P18031, G259M).
T5 sequence (P18031 1-435 G259M): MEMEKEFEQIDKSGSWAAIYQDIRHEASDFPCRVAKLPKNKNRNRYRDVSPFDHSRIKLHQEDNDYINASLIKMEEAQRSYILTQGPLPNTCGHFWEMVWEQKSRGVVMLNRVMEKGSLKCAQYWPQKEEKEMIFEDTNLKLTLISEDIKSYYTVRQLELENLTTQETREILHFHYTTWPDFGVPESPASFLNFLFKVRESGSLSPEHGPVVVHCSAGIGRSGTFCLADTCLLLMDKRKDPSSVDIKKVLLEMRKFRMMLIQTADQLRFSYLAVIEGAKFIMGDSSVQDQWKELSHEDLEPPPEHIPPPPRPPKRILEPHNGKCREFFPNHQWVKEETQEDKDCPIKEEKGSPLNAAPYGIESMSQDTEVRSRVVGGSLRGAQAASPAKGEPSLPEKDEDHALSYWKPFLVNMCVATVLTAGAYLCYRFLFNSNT
Nature of the test: Enzyme kinetic analysis with mutant PTPs, Ki. Conditions: pH 7.0.
Excerpt: as §1, §2

Test [2] concerns the target T3, PTPα. Nature of the test: PTPase inhibition, p-nitrophenyl phosphate substrate, Ki. Conditions: pH 7.0 (Table 5); read-out: Ki values, PTPα.

Description for LAR: The compounds are evaluated for biological activity with a truncated form of PTP1B (corresponding to the first 321 amino acids), which was expressed in E. coli and purified to apparent homogeneity using published procedures well-known to those skilled in the art. The enzyme reactions are carried out using standard conditions essentially as described by Burke et al. (Biochemistry 35; 15989–15996 (1996)) incorporated by reference. […] Appropriate concentrations of the compounds of the invention (e.g., 0.1 to 100 μM) are added to the reaction mixtures containing different concentrations of the substrate, p-nitrophenyl phosphate (range: 0.16 to 10 mM—final assay concentration). The buffer used was 50 mM HEPES pH 7.0, 100 mM sodium chloride, 0.1% (w/v) bovine serum albumin, 5 mM glutathione, and 1 mM EDTA. The reaction was started by addition of the enzyme and carried out in microtiter plates at 25° C. for 60 minutes. The reactions are stopped by addition of NaOH. The enzyme activity was determined by measurement of the absorbance at 405 nm with appropriate corrections for absorbance at 405 nm of the compounds and p-nitrophenyl phosphate. The data are analyzed using nonlinear regression fit to classical Michaelis Menten enzyme kinetic models. Inhibition is expressed as Ki values in μM.
Description for PTPα Q259G: The compounds are evaluated for biological activity with a truncated form of PTP1B (corresponding to the first 321 amino acids), which was expressed in E. coli and purified to apparent homogeneity using published procedures well-known to those skilled in the art. The enzyme reactions are carried out using standard conditions essentially as described by Burke et al. (Biochemistry 35; 15989–15996 (1996)) incorporated by reference. The assay conditions are as follows. Appropriate concentrations of the compounds of the invention (e.g., 0.1 to 100 μM) are added to the reaction mixtures containing different concentrations of the substrate, p-nitrophenyl phosphate (range: 0.16 to 10 mM—final assay concentration). The buffer used was 50 mM HEPES pH 7.0, 100 mM sodium chloride, 0.1% (w/v) bovine serum albumin, 5 mM glutathione, and 1 mM EDTA. […] The enzyme activity was determined by measurement of the absorbance at 405 nm with appropriate corrections for absorbance at 405 nm of the compounds and p-nitrophenyl phosphate. The data are analyzed using nonlinear regression fit to classical Michaelis Menten enzyme kinetic models. Inhibition is expressed as Ki values in μM.

For `O=C(O)C(=O)Nc1sc2c(c1C(=O)O)CCOC2COC1=NS(=O)(=O)c2ccccc21` (stereo not shown) [Compound N, 7-(1,1-dioxo-1H-benzo[d]isothiazol-3-yloxymethyl)-2-(oxalyl-amino)-4,7-dihyd ro-5H-thieno[2,3-c]pyran-3-carboxylic acid], the Ki was 0.4 µM on PTP1B; 55 µM at PTPH1; > 500 µM on PTPα [1]; 120 µM on LAR; 70 µM at PTPα Q259G; 55 µM at PTP1B G259M. Besides, the Ki at PTPα [2] was determined as 700 µM.

As a reminder, the Ki is a dissociation constant, usually derived from enzyme kinetics or from competition with a known ligand.
